± gives the uncertainty stated by the source.
Test: xn = mol fraction of the nth substance listed

CC(=O)OC(C)C + CCc1ccccc1
viscosity [mPa·s], 101 kPa
Conditions | x1 = 0.1056 | x1 = 0.2037 | x1 = 0.3116 | x1 = 0.4048 | x1 = 0.5112 | x1 = 0.6089 | x1 = 0.7156 | x1 = 0.811 | x1 = 0.9403
303.15 K | 0.582 ± 0.011 | 0.567 ± 0.011 | 0.551 ± 0.011 | 0.538 ± 0.011 | 0.523 ± 0.011 | 0.51 ± 0.011 | 0.496 ± 0.011 | 0.484 ± 0.011 | 0.467 ± 0.011
313.15 K | 0.523 ± 0.011 | 0.509 ± 0.011 | 0.494 ± 0.011 | 0.482 ± 0.011 | 0.469 ± 0.011 | 0.457 ± 0.011 | 0.445 ± 0.011 | 0.434 ± 0.011 | 0.42 ± 0.01

CCOC(=O)C(=O)OCC + CCO
viscosity [mPa·s]
Conditions | 303.15 K | 313.15 K | 323.15 K
101 kPa, x1 = 0.1003 | 0.935 ± 0.056 | 0.799 ± 0.048 | 0.667 ± 0.04
101 kPa, x1 = 0.2024 | 0.948 ± 0.057 | 0.809 ± 0.049 | 0.68 ± 0.041
101 kPa, x1 = 0.3028 | 0.988 ± 0.06 | 0.836 ± 0.05 | 0.711 ± 0.043
101 kPa, x1 = 0.4015 | 1.045 ± 0.063 | 0.879 ± 0.053 | 0.751 ± 0.045
101 kPa, x1 = 0.4917 | 1.108 ± 0.067 | 0.93 ± 0.056 | 0.793 ± 0.048
101 kPa, x1 = 0.5907 | 1.177 ± 0.071 | 0.99 ± 0.06 | 0.845 ± 0.051
101 kPa, x1 = 0.6942 | 1.259 ± 0.076 | 1.063 ± 0.064 | 0.909 ± 0.055
101 kPa, x1 = 0.8049 | 1.362 ± 0.082 | 1.151 ± 0.069 | 0.987 ± 0.059
101 kPa, x1 = 0.903 | 1.484 ± 0.089 | 1.233 ± 0.074 | 1.061 ± 0.064
101.33 kPa, x1 = 0.1001 | 0.948 ± 0.006 | – | –
101.33 kPa, x1 = 0.2004 | 0.968 ± 0.006 | – | –
101.33 kPa, x1 = 0.2897 | 1.009 ± 0.007 | – | –
101.33 kPa, x1 = 0.398 | 1.069 ± 0.007 | – | –
101.33 kPa, x1 = 0.5098 | 1.146 ± 0.007 | – | –
101.33 kPa, x1 = 0.5982 | 1.213 ± 0.008 | – | –
101.33 kPa, x1 = 0.6828 | 1.283 ± 0.008 | – | –
101.33 kPa, x1 = 0.77 | 1.371 ± 0.009 | – | –
101.33 kPa, x1 = 0.8931 | 1.515 ± 0.009 | – | –

CCCC(C)O (centres undefined) + CC1CCCCC1
viscosity [mPa·s], 100 kPa
Conditions | x2 = 0.081 | x2 = 0.16 | x2 = 0.2399 | x2 = 0.3501 | x2 = 0.4399 | x2 = 0.56 | x2 = 0.6499 | x2 = 0.7401 | x2 = 0.8499 | x2 = 0.94
293.15 K | 3.09 ± 0.37 | 2.46 ± 0.3 | 1.96 ± 0.24 | 1.48 ± 0.18 | 1.23 ± 0.15 | 1.05 ± 0.13 | 0.98 ± 0.12 | 0.93 ± 0.11 | 0.88 ± 0.11 | 0.8 ± 0.1
298.15 K | 2.56 ± 0.31 | 2.05 ± 0.25 | 1.66 ± 0.2 | 1.26 ± 0.15 | 1.06 ± 0.13 | 0.92 ± 0.11 | 0.86 ± 0.1 | 0.82 ± 0.1 | 0.79 ± 0.1 | 0.73 ± 0.09
303.15 K | 2.15 ± 0.26 | 1.74 ± 0.21 | 1.43 ± 0.17 | 1.11 ± 0.13 | 0.95 ± 0.11 | 0.83 ± 0.1 | 0.79 ± 0.1 | 0.77 ± 0.09 | 0.73 ± 0.09 | 0.68 ± 0.08
308.15 K | 1.83 ± 0.22 | 1.5 ± 0.18 | 1.24 ± 0.15 | 0.99 ± 0.12 | 0.86 ± 0.1 | 0.75 ± 0.09 | 0.71 ± 0.09 | 0.69 ± 0.08 | 0.67 ± 0.08 | 0.63 ± 0.08
313.15 K | 1.57 ± 0.19 | 1.31 ± 0.16 | 1.1 ± 0.13 | 0.89 ± 0.11 | 0.78 ± 0.09 | 0.7 ± 0.08 | 0.67 ± 0.08 | 0.65 ± 0.08 | 0.63 ± 0.08 | 0.59 ± 0.07
318.15 K | 1.35 ± 0.16 | 1.13 ± 0.14 | 0.96 ± 0.12 | 0.8 ± 0.1 | 0.72 ± 0.09 | 0.66 ± 0.08 | 0.64 ± 0.08 | 0.62 ± 0.07 | 0.6 ± 0.07 | 0.57 ± 0.07
323.15 K | 1.17 ± 0.14 | 1 ± 0.12 | 0.86 ± 0.1 | 0.72 ± 0.09 | 0.66 ± 0.08 | 0.61 ± 0.07 | 0.58 ± 0.07 | 0.57 ± 0.07 | 0.56 ± 0.07 | 0.54 ± 0.07

— the CheMixHub viscosity set
